Reference: PMC10973027 (Molecular Imaging and Biology, 2023)

Key:
[1] = Safety and tolerability in TM0017 (TEAEs, ECG, vital signs); conditions: TM0017, N = 4, IV radiotracer (≤ 10 µg)
Protocol: Other safety variables recorded include changes in 12-lead electrocardiogram (ECG) assessment and changes in vital signs (heart rate, systolic blood pressure, diastolic blood pressure, respiratory rate, and body temperature). Vital signs were measured in supine position following 5 min of rest and clinically significant abnormalities (according to the investigator) were recorded as an AE. All ECG recordings were performed following 5 min of rest in the supine position, in triplicate, with ≥ 1 min between each recording. If any clinically significant abnormalities occurred, an ECG data specialist was to review the recordings.

[2] = Phase 1 PET-CT brain biodistribution study TM0017 (VT, K1, k2); assay type: in vivo, human
Protocol: A sample size of 2–10 participants was considered sufficient to meet the objectives, whilst limiting radiation exposure.
The preparation of radiopharmaceuticals and execution of PET-CT scans was performed by radiochemists, physicians, and technologists of Invicro (London, UK). Following local anesthesia, a catheter was inserted into the radial artery by an experienced physician; two venous catheters were also inserted. […] Upon administration, dynamic scanning started immediately and continued for 90 min.
(§1) Arterial input function data were acquired and processed for all PET scans.
Anatomical regions of interest (ROI) were defined via nonlinear deformation of a template MR image and associated neuroanatomical atlas, to match individual participants’ MR images. These ROI included, but were not limited to: parietal lobe, occipital lobe, frontal lobe, temporal lobe, striatum, cerebellum, thalamus, and the brain stem. Participants’ PET images were registered to their MR images, enabling the individualized ROI to be applied to the dynamic emission data to generate regional time activity curves (TACs). For additional information on the generation of regional TACs, see the electronic supplement.
Phase 1 PET Study in Healthy Male Participants (TM0017)
The TAC and total plasma data were fitted to a single compartment model to determine the influx and efflux constants K1 and k2. Because the plasma free fraction estimate is imprecise, we elected to fit the model using the total (free and bound) arterial concentration input function. The parameters of this model are related to the analogous parameters which would be estimated using an accurate estimate of the free arterial concentration using the equations below. We were able therefore to determine and present the K1 and estimated whole brain total distribution volume (VT), with relatively good repeatability between patients, and the equations below could also be used to relate the overall mean estimates back to the ideal total brain to free plasma minzasolmin (V’T) and unidirectional extraction Eu which can be calculated using the free fraction. The blood volume in the model was fixed at 5%. In this model, radiotracer which is free in tissue, non-specifically bound and specifically bound (i.e. to a target of interest) are lumped together in a single compartment, and so interchange between those states is assumed to be rapid.
The arterial input function used represents the total concentration of parent radiotracer in plasma, with no correction for plasma protein binding and the fitted and observed K1 from this model is lower than the rate of uptake from the free plasma concentration (K’1):
To calculate the Eu from the observed K1 from the model we then need to combine […]
The partition coefficient between total brain and total plasma concentration was determined from the fitted K1 and k2 parameters: […]
and the ratio of total concentration in brain to free concentration in plasma ( V’T) could be […]
Supplemental Fig. 1. Example of HPLC chromatograms (radioactive trace, top; UV trace, bottom) obtained during HPLC analysis of [11C-N-CH3]UCB2713 dose. The time delay

[3] = Arterial plasma radio-metabolite analysis during PET scans (TM0017); assay type: in vivo, human
From the text: as §1

[4] = background statement, no reference given; cited from earlier work
[5] = Radio-HPLC metabolite analysis of mouse brain homogenate and plasma after IV radiotracer; assay type: in vivo, male C57 black 6 mice
Protocol: In this preclinical study, two radiolabeling positions were investigated, [^11C-N-CH3]UCB2713 and [^11C]carbonyl UCB2713 ([^11C-CO]UCB2713). The radiolabeling of [^11C-N-CH3]UCB2713 was performed by N-methylation of the corresponding desmethyl precursor with [^11C]methyl iodide and radiolabeling of [^11C-CO]UCB2713 was performed by [^11C]aminocarbonylation of the iodo precursor and the amino precursor with [^11C]carbon monoxide in the presence of Pd(π-cinnamyl) chloride dimer and Xantphos (4,5-bis(diphenylphosphino)-9,9-dimethylxanthene) (Fig. 1b). For additional information on the precursor molecules and radiolabeling methods, see the electronic supplement. A high-performance liquid chromatography (HPLC) metabolite analysis method was developed to quantify the ratio of [^11C-N-CH3]UCB2713 and other unidentified metabolites in plasma and brain homogenate samples. Relative quantification was used to provide the ratio of parent to metabolite in these samples.
Preclinical experiments were conducted on male C57 black 6 mice (N = 10). In vivo experiments were performed on 3 mice and included a PET scan of the brain; ex vivo experiments were performed on all 10 mice and included samples of brain homogenate.
[11C]UCB2713 in vivo/ex vivo Evaluation
Administration of Radioligand and Collecting Samples
Each mouse received an intravenous (IV) bolus injection of [11C]UCB2713 via the jugular vein. The mean (standard deviation [SD]) mass of each radiotracer dose was 1.54 (± 1.03) µg; with a radioactive dose of 17.26 (± 10.88) MBq. At pre-defined time points (40, 60, and 90 min) post-administration of [11C]UCB2713, each mouse was euthanized by exsanguination, followed by cervical dislocation, with blood samples collected in heparin tubes and the brain dissected.
Brain Sample Processing and Preparation of Sample for Analysis
A sample of brain homogenate (1:1, brain:water) was assessed for radioactivity using a γ-counter. Brain homogenate was extracted with a ratio of 1:2 (homogenate:acetonitrile); a ratio of 1:1 was used for the first two animals. The mixture was vortexed for 3 min followed by centrifugation (12000 x g) for 5 min at room temperature. The extraction efficiency was […]
Brain extraction efficiency = counts per minute (CPM) in supernatant (brain extract)/CPM in brain homogenate extracted
To identify the parent-retention time based on the ultraviolet (UV) chromatogram, 20 µL of a solution containing UCB2713 was added to the supernatant (350 µL), followed by 350 µL of 50 mM ammonium formate (adjusted to pH 8), then 0.5 mL of the resulting solution was injected onto the high-performance liquid chromatography (HPLC) column.
Two aliquots of this solution were counted to determine the HPLC recovery as follows:
Recovery efficiency % = = i=1 ∙100 […]
Where “CPM(aliq.)” is the radioactivity measured for the HPLC brain homogenate samples aliquot, “Valiq.” Is the volume of each aliquot , “CPM fi” is the count per minute for fraction “i” and ∑ 30 is the sum of 30 fractions.
Mouse blood samples were centrifuged at 7500 x g for 3 min at 4 °C and plasma was extracted with a ratio of 1:1 (plasma:acetonitrile). The plasma extraction efficiency was […]
Plasma extraction efficiency = CPM in supernatant (plasma extract)/CPM in plasma […]
Samples were prepared as described above for the brain, and two aliquots of solution were counted to determine the HPLC column recovery.
HPLC Procedure and Data Analysis
The HPLC system used a pump, degasser, UV-Vis/Diode Array Detector, and fraction collector. HPLC conditions used were 55% acetonitrile and 45% 100 mM ammonium formate (Method 1), or 48% acetonitrile and 52% 100 mM ammonium formate (adjusted to pH 8; Method 2) as the mobile phase at 5 mL/min and an Agilent XDB-C18 semi-preparative […]
column (5 micron, 250 x 9.4 mm; Method 2); 30 sample fractions (Method 1) and 36 sample fractions (Method 2) were collected over either a 10- or 12-min run.
A radio-chromatogram was reconstructed from the HPLC fractions collected and the […]

[6] = Cerebellum, Scan 2 (after oral minzasolmin 360 mg)
[7] = Cerebral white matter, Scan 1 (baseline)
[8] = Cerebral white matter, Scan 2 (after oral minzasolmin 360 mg)
[9] = Frontal lobe, Scan 1 (baseline)
[10] = Frontal lobe, Scan 2 (after oral minzasolmin 360 mg)
[11] = Gray matter, Scan 2 (after oral minzasolmin 360 mg)
[12] = Occipital lobe, Scan 1 (baseline)
[13] = Occipital lobe, Scan 2 (after oral minzasolmin 360 mg)
[14] = Parietal lobe, Scan 1 (baseline)
[15] = Parietal lobe, Scan 2 (after oral minzasolmin 360 mg)
[16] = Striatum, Scan 2 (after oral minzasolmin 360 mg)
[17] = Temporal lobe, Scan 1 (baseline)
[18] = Temporal lobe, Scan 2 (after oral minzasolmin 360 mg)
[19] = mixed effects model, after oral minzasolmin 360 mg

**Q.** For CCCC[C@H](Cc1c[nH]c2ccccc12)NC(=O)c1cnc(N2CCN([11CH3])CC2)s1 [[^11C]minzasolmin], which “Any TEAEs” value [1] is on record?
**A.** 3 (75) n (%)

**Q.** What about the Deaths [1] of the same compound?
**A.** 0 n (%)

**Q.** What about the “Discontinuations due to TEAEs” value [1] of the same compound?
**A.** 0 n (%)

**Q.** And the “Drug-related TEAEs” value [1]?
**A.** 0 n (%)

**Q.** And the “Serious TEAEs” value [1]?
**A.** 0 n (%)

**Q.** What about the “Severe TEAEs” value [1] of the same compound?
**A.** 0 n (%)

**Q.** And the “TEAEs of special interest” value [1]?
**A.** 0 n (%)

**Q.** What about the K1 ([2]; Cerebellum, Scan 1 (baseline)) of the same compound?
**A.** 0.02 mL/cm^3/min

**Q.** And the VT ([2]; Cerebellum, Scan 1 (baseline))?
**A.** 0.522 mL/cm^3

**Q.** And the K1 [2, 6]?
**A.** 0.018 mL/cm^3/min

**Q.** And the VT [2, 6]?
**A.** 0.499 mL/cm^3

**Q.** What about the K1 [2, 7] of the same compound?
**A.** 0.008 mL/cm^3/min

**Q.** What about the VT [2, 7] of the same compound?
**A.** 0.469 mL/cm^3

**Q.** What about the K1 [2, 8] of the same compound?
**A.** 0.007 mL/cm^3/min

**Q.** And the VT [2, 8]?
**A.** 0.523 mL/cm^3

**Q.** And the K1 [2, 9]?
**A.** 0.017 mL/cm^3/min

**Q.** And the VT [2, 9]?
**A.** 0.539 mL/cm^3

**Q.** And the K1 [2, 10]?
**A.** 0.014 mL/cm^3/min

**Q.** And the VT [2, 10]?
**A.** 0.539 mL/cm^3

**Q.** What about the K1 ([2]; Gray matter, Scan 1 (baseline)) of the same compound?
**A.** 0.017 mL/cm^3/min

**Q.** And the VT ([2]; Gray matter, Scan 1 (baseline))?
**A.** 0.547 mL/cm^3

**Q.** What about the K1 [2, 11] of the same compound?
**A.** 0.015 mL/cm^3/min

**Q.** And the VT [2, 11]?
**A.** 0.542 mL/cm^3

**Q.** And the K1 [2, 12]?
**A.** 0.019 mL/cm^3/min

**Q.** What about the VT [2, 12] of the same compound?
**A.** 0.548 mL/cm^3

**Q.** And the K1 [2, 13]?
**A.** 0.017 mL/cm^3/min

**Q.** And the VT [2, 13]?
**A.** 0.555 mL/cm^3

**Q.** What about the K1 [2, 14] of the same compound?
**A.** 0.017 mL/cm^3/min

**Q.** What about the VT [2, 14] of the same compound?
**A.** 0.551 mL/cm^3

**Q.** What about the K1 [2, 15] of the same compound?
**A.** 0.015 mL/cm^3/min

**Q.** And the VT [2, 15]?
**A.** 0.574 mL/cm^3

**Q.** What about the “VT before and after dosing with minzasolmin 360 mg” value ([2]; Scan 1 vs Scan 2) of the same compound?
**A.** no difference in VT

**Q.** What about the K1 ([2]; Striatum, Scan 1 (baseline)) of the same compound?
**A.** 0.015 mL/cm^3/min

**Q.** And the VT ([2]; Striatum, Scan 1 (baseline))?
**A.** 0.545 mL/cm^3

**Q.** And the K1 [2, 16]?
**A.** 0.013 mL/cm^3/min

**Q.** And the VT [2, 16]?
**A.** 0.528 mL/cm^3

**Q.** What about the K1 [2, 17] of the same compound?
**A.** 0.017 mL/cm^3/min

**Q.** And the VT [2, 17]?
**A.** 0.566 mL/cm^3

**Q.** What about the K1 [2, 18] of the same compound?
**A.** 0.015 mL/cm^3/min

**Q.** And the VT [2, 18]?
**A.** 0.557 mL/cm^3

**Q.** And the “overall mean brain influx rate (K1)” value ([2]; across each participant and all ROI, from total plasma concentrations)?
**A.** 0.015 mL/cm^3/min

**Q.** What about the “qualitative assessment of the PET images” value ([2]; following radiotracer injections) of the same compound?
**A.** distributed throughout the brain

**Q.** And the “mean difference in VT between Scan 1 and Scan 2” value ([2]; least squares mean of mixed model over all regions and participants)?
**A.** -0.008 mL/cm^3

**Q.** What about the “change in K1 after oral dosing” value [2, 19] of the same compound?
**A.** -15.9%

**Q.** And the “change in k2 after oral dosing” value [2, 19]?
**A.** -9.3%

**Q.** What about the “radioactivity in plasma attributable to intact parent radiotracer” value ([3]; human arterial plasma, at 90 min) of the same compound?
**A.** ~ 50%

**Q.** What about the “total parent fraction during the radiotracer brain uptake phase” value ([3]; human plasma, up to 30 min) of the same compound?
**A.** > 70%

**Q.** Which “rate of metabolism compared with the other enantiomer” value [4] does the source give for CCCCC(Cc1c[nH]c2ccccc12)NC(=O)c1cnc(N2CCN(C)CC2)s1 (centres unmarked) [UCB2713] here?
**A.** higher rate of metabolism

**Q.** What does the source list for CCCC[C@@H](Cc1c[nH]c2ccccc12)N[11C](=O)c1cnc(N2CCN(C)CC2)s1 [[^11C-CO]UCB2713]?
**A.** parent fraction in brain tissue ([5]; in-vivo metabolism studies in mice): > 95%; polar metabolites in mouse brain ([5]; radio-HPLC column eluent front ~1.5-2 min): no polar metabolite present in the mouse brain
